Each structure is given as a SMILES string. Values joined by “and” are separate entries in the source; they are usually repeats but may differ in a detail not shown here. Equal values may be shown once.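 These data come from cells grown in 96-well plates and exposed to compound for 48 hours at five concentrations. GI50 = concentration required for 50% inhibition of growth.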 Active and inactive are the calls of the source. Rule as the data show it: active = GI50 up to about 1.1 µM and inactive = higher. Bounds are passed on as bounds.

Test systems include EKVX; PC-3; SK-OV-3; A498; UACC-257; ACHN; Hs-578T; KM12; K562; MDA-N; HCC 2998; MDA-MB-435; IGROV-1; SF-268; SNB-75; HL-60; SN12C; HCT-15; NCI/ADR-RES.
What all share (assay): NCI tumour cell line growth inhibition, 48 h

Turning to `CC1C2CC(CC2=O)C1(C)C` (stereo not drawn), the GI50 in the assay on EKVX, in the assay with PC-3, with SK-OV-3, in the assay on A498, with UACC-257 and with ACHN was > 100 µM (inactive) in each case. Besides, the GI50 in the assay with Hs-578T, with KM12, with K562, with MDA-N, in the assay with HCC 2998 and with MDA-MB-435 was > 100 µM (inactive) in each case. Also, the GI50 with IGROV-1, in the assay on SF-268, in the assay on SNB-75, with HL-60 and in the assay on SN12C was > 100 µM (inactive) throughout.
In the case of `COC(=O)/C(=N\N)C(C(=O)C(=O)Nc1cccc([N+](=O)[O-])c1)c1nc2ccc(C(=O)c3ccccc3)cc2nc1O` (stereo not drawn), the GI50 in the assay with EKVX is > 100 µM (inactive); in the assay with PC-3 it was 84.5 µM (inactive); in the assay with SK-OV-3 it was 93.8 µM (inactive); in the assay on HCT-15 it was over 100 µM; in the assay on UACC-257, > 100 µM (inactive); in the assay with ACHN, > 100 µM (inactive). Further, the GI50 in the assay with Hs-578T, in the assay with KM12, in the assay on MDA-N, with HCC 2998, in the assay on MDA-MB-435 and in the assay on IGROV-1 was > 100 µM (inactive) each time. Moreover, the GI50 was > 100 µM (inactive) in the assay on SF-268; > 100 µM (inactive) with NCI/ADR-RES; > 100 µM (inactive) in the assay on SNB-75; 32.5 µM (inactive) in the assay on HL-60; > 100 µM (inactive) in the assay on SN12C.
On to `Cc1c2c(OCCCCN3CCN(c4ncccn4)CC3)nn(C)c(=O)c2c(C)n1-c1ccccc1`, for which the GI50 was 19.1 µM (inactive) in the assay with EKVX; 20.4 µM (inactive) in the assay with PC-3; 18.7 µM (inactive) in the assay with SK-OV-3; 17.8 µM in the assay on HCT-15; 16.9 µM (inactive) in the assay on A498; 18.7 µM (inactive) in the assay on UACC-257. Besides, the GI50 is 17.4 µM (inactive) in the assay with ACHN; 26.2 µM (inactive) in the assay with Hs-578T; 18.4 µM (inactive) in the assay with KM12; 30.8 µM (inactive) in the assay with K562; 20 µM (inactive) in the assay with HCC 2998; 18.7 µM (inactive) in the assay with MDA-MB-435. Moreover, the GI50 with IGROV-1 was 17.8 µM (inactive); in the assay on SF-268 it was 18.7 µM (inactive); in the assay with NCI/ADR-RES, 21.3 µM (inactive); in the assay with SNB-75, 19.5 µM (inactive); in the assay with HL-60, 21.1 µM (inactive); in the assay on SN12C, 17.2 µM (inactive).
Take `CCOC(=O)NCC(=O)NCC(=O)NCC(N)=O`: the GI50 was > 100 µM (inactive) in the assay on EKVX; > 100 µM (inactive) with PC-3; > 100 µM (inactive) in the assay with SK-OV-3; over 100 µM in the assay on HCT-15; > 100 µM (inactive) with UACC-257; > 100 µM (inactive) with ACHN. Moreover, the GI50 with Hs-578T, with KM12, in the assay with K562, with MDA-N, in the assay on HCC 2998 and with MDA-MB-435 was > 100 µM (inactive) throughout. Further, the GI50 in the assay with IGROV-1, with SF-268 and with NCI/ADR-RES was > 100 µM (inactive) in each case.
With `COc1cc2c(cc1OC)C(=O)/C(=C/c1ccc([N+](=O)[O-])cc1)CC2`, the GI50 was > 10 µM (inactive) in the assay with EKVX; > 10 µM (inactive) in the assay with PC-3; > 10 µM (inactive) with SK-OV-3; over 10 µM in the assay with HCT-15; > 10 µM (inactive) with UACC-257; > 10 µM (inactive) in the assay on ACHN. The GI50 with Hs-578T, in the assay with KM12, with K562, with MDA-N, in the assay with HCC 2998 and in the assay on MDA-MB-435 was > 10 µM (inactive) each time. The GI50 in the assay on IGROV-1, in the assay with SF-268, with NCI/ADR-RES, with HL-60 and with SN12C was > 10 µM (inactive) in each case.
As to `c1ccc(/C(=N/Nc2ccncn2)c2ccccn2)cc1`, the GI50 was 4.34 µM (inactive) in the assay with EKVX; 36.5 µM (inactive) in the assay with PC-3; 23.7 µM (inactive) in the assay on SK-OV-3; 24.4 µM in the assay on HCT-15; 20.9 µM (inactive) with UACC-257; 5.82 µM (inactive) with ACHN. The GI50 with Hs-578T is 0.0114 µM (active); with KM12 it was 22 µM (inactive); in the assay on K562, 0.528 µM (active); in the assay on MDA-N it was 58.5 µM (inactive); in the assay on HCC 2998, > 100 µM (inactive); in the assay on MDA-MB-435, 48.6 µM (inactive). In addition, the GI50 in the assay with IGROV-1 was 17 µM (inactive); with SF-268 it was 15.9 µM (inactive); in the assay with NCI/ADR-RES, 18.4 µM (inactive); with SNB-75 it was 18.9 µM (inactive); in the assay with SN12C, 35 µM (inactive).
With `Cc1ccc(N(C(=O)Nc2ccc(F)c(Cl)c2)C2=NCC(C)S2)cc1` (stereo not drawn), the GI50 is 49.9 µM (inactive) with EKVX; 46.7 µM (inactive) in the assay with PC-3; > 100 µM (inactive) with SK-OV-3; 52.7 µM in the assay with HCT-15; 34.3 µM (inactive) with A498; 53.2 µM (inactive) with UACC-257. Besides, the GI50 with ACHN was 50.2 µM (inactive); in the assay on Hs-578T it was > 100 µM (inactive); in the assay on KM12, 42 µM (inactive); with K562, 43.9 µM (inactive); in the assay on MDA-N it was 46.7 µM (inactive); in the assay with IGROV-1, > 100 µM (inactive). Besides, the GI50 in the assay on SF-268 was 27.8 µM (inactive); with NCI/ADR-RES it was 22.6 µM (inactive); in the assay on SNB-75, 17.9 µM (inactive); in the assay with HL-60, 23.8 µM (inactive); with SN12C, 67 µM (inactive).
Take `Cc1ccc(S(=O)(=O)NC(=O)NC(CO)C(=O)O)cc1` (stereo not drawn): the GI50 in the assay on PC-3 was > 100 µM (inactive); with SK-OV-3, > 100 µM (inactive); with HCT-15, over 100 µM; in the assay on UACC-257 it was > 100 µM (inactive); in the assay on ACHN it was > 100 µM (inactive); with Hs-578T, > 100 µM (inactive). The GI50 in the assay on KM12, with K562, in the assay on MDA-N, in the assay on IGROV-1, in the assay with SF-268 and in the assay with NCI/ADR-RES was > 100 µM (inactive) in each case. Besides, the GI50 with SNB-75, in the assay with HL-60 and with SN12C was > 100 µM (inactive) throughout.
Turning to `C=CCCCN(C(=O)c1ccccc1)c1ccc(C(=O)OC)o1`, the GI50 with EKVX was > 100 µM (inactive); in the assay with PC-3, 83.8 µM (inactive); with SK-OV-3 it was > 100 µM (inactive); in the assay on HCT-15 it was over 100 µM; in the assay with A498 it was > 100 µM (inactive); in the assay with UACC-257 it was > 100 µM (inactive). Besides, the GI50 in the assay on ACHN is > 100 µM (inactive); with Hs-578T it was > 100 µM (inactive); with KM12, 95.1 µM (inactive); with MDA-N it was 51.9 µM (inactive); in the assay with IGROV-1, > 100 µM (inactive); in the assay on SF-268, > 100 µM (inactive). The GI50 is 52.5 µM (inactive) in the assay on NCI/ADR-RES, > 100 µM (inactive) in the assay on SNB-75, 19.3 µM (inactive) with HL-60 and > 100 µM (inactive) with SN12C.
In the case of `CC1CN=C(Nc2ccc(S(N)(=O)=O)cc2)S1` (stereo not drawn), the GI50 was > 100 µM (inactive) in the assay with EKVX; > 10 µM (inactive) in the assay on PC-3; > 100 µM (inactive) in the assay on SK-OV-3; over 100 µM in the assay on HCT-15; > 100 µM (inactive) in the assay with A498; > 100 µM (inactive) in the assay with UACC-257. For the same compound, the GI50 is > 100 µM (inactive) in the assay on ACHN; > 100 µM (inactive) with Hs-578T; > 100 µM (inactive) with KM12; > 100 µM (inactive) with K562; > 10 µM (inactive) in the assay on MDA-N; > 100 µM (inactive) with HCC 2998. Further, the GI50 in the assay with IGROV-1, in the assay with SF-268, with NCI/ADR-RES, in the assay with SNB-75, with HL-60 and in the assay with SN12C was > 100 µM (inactive) in each case.
With `Cc1nc2sc3ccccc3n2c(=O)c1/N=N/c1ccc(Cl)cc1`, the GI50 is > 100 µM (inactive) in the assay on EKVX; > 100 µM (inactive) with PC-3; > 100 µM (inactive) in the assay on SK-OV-3; over 100 µM in the assay with HCT-15; > 100 µM (inactive) in the assay on UACC-257; > 100 µM (inactive) with ACHN. Also, the GI50 in the assay on Hs-578T, in the assay on KM12, in the assay with K562, in the assay on MDA-N, with MDA-MB-435 and in the assay with IGROV-1 was > 100 µM (inactive) in each case. Also, the GI50 with SF-268, with NCI/ADR-RES, with SNB-75, in the assay on HL-60 and in the assay on SN12C was > 100 µM (inactive) each time.
As to `N#Cc1c(-c2ccccc2)c(C#N)c(=S)n(C2OC(CO)C(O)C(O)C2O)c1N` (stereo not drawn), the GI50 is > 100 µM (inactive) with PC-3; over 100 µM in the assay on HCT-15; 38.7 µM (inactive) and 44.2 µM (inactive) with A498; > 100 µM (inactive) in the assay with UACC-257; 99.8 µM (inactive) and 61.2 µM (inactive) in the assay on ACHN; 79.8 µM (inactive) with Hs-578T. The GI50 with KM12 was > 100 µM (inactive); in the assay with K562, > 100 µM (inactive) and 59.4 µM (inactive); in the assay on MDA-N, > 100 µM (inactive); in the assay with HCC 2998, > 100 µM (inactive) and 96.4 µM (inactive); in the assay on SF-268, > 100 µM (inactive); in the assay with SNB-75, 42.2 µM (inactive) and 64.9 µM (inactive). Further, the GI50 with HL-60 and in the assay on SN12C was > 100 µM (inactive) each time.
